The supplement of paper PMC10307832

What was measured:
Test in all cases: relative viability (nuclei count vs DMSO), 5 days (fraction); higher = more cells survive
CUDC-101 = compound: C#Cc1cccc(Nc2ncnc3cc(OC)c(OCCCCCCC(=O)NO)cc23)c1 [CUDC-101]
How it was run: (§1)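 After an overnight hold at 37 °C, lung cancer cell lines in 1536-well plates were pinned with five library-drug doses (not always all listed), each √10 from the next, on vehicle-anchored plates. The cells stayed 5 days without fresh medium, then a one-step fix, permeabilisation and Hoechst stain preceded 4× imaging and MetaXpress nuclear counts. A plate passed only with control CV under 25% and at least one doubling. Viability is the median, over plates, of treated-well nuclei relative to vehicle-well nuclei.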

[1] = compound: C1=CC=C2C(=C1)N=C(S2)C(C#N)C3=NC(=NC=C3)NCCC4=CN=CC=C4
How it was run: as §1

NVP-TAE684 = compound: COc1cc(N2CCC(N3CCN(C)CC3)CC2)ccc1Nc1ncc(Cl)c(Nc2ccccc2S(=O)(=O)C(C)C)n1 [NVP-TAE684]
How it was run: as §1

Vandetanib = compound: COc1cc2/c(=N/c3ccc(Br)cc3F)nc[nH]c2cc1OCC1CCN(C)CC1 [Vandetanib]
How it was run: as §1

| Cell Line | relative viability (CUDC-101; 0.01 µM) | relative viability (CUDC-101; 0.03162 µM) | relative viability (CUDC-101; 0.1 µM) | relative viability (CUDC-101; 0.3162 µM) | relative viability (CUDC-101; 1 µM) | relative viability ([1]; 0.005 µM) | relative viability ([1]; 0.01581 µM) | relative viability ([1]; 0.05 µM) | relative viability ([1]; 0.1581 µM) | relative viability ([1]; 0.5 µM) | relative viability (NVP-TAE684; 0.2 µM) | relative viability (NVP-TAE684; 0.6325 µM) | relative viability (Vandetanib; 0.02 µM) | relative viability (Vandetanib; 0.06325 µM) | relative viability (Vandetanib; 0.2 µM) | relative viability (Vandetanib; 0.6325 µM) | relative viability (Vandetanib; 2 µM) | relative viability (NVP-TAE684; 2 µM) |
| --- | --- | --- | --- | --- | --- | --- | --- | --- | --- | --- | --- | --- | --- | --- | --- | --- | --- | --- |
| NCI-H1299 | 1.01 | 0.998 | 1.02 | 1.01 | 0.919 | 1.06 | 1.05 | 0.95 | 1.06 | 0.974 | 1.05 | 1.01 | 1.01 | 0.963 | 1.05 | 1.01 | 1.02 |  |
| NCI-H2009 | 1 | 0.999 | 1.04 | 1.04 | 0.914 | 0.938 | 1 | 1.04 | 1.04 | 1.02 | 0.993 | 0.936 | 0.963 | 0.972 | 1.01 | 1.03 | 1.05 | 0.762 |
| NCI-H1395 | 1.05 | 0.883 | 0.952 | 0.974 | 0.648 | 0.876 |  | 0.922 | 1.11 | 0.995 | 1.01 | 0.777 | 0.909 | 0.954 | 0.856 | 0.938 | 0.795 | 0.977 |
| NCI-H1650 | 0.895 | 0.764 | 0.818 | 0.799 | 0.587 | 0.89 | 0.816 | 0.922 | 1 | 0.774 | 0.782 | 0.745 | 0.997 | 0.736 | 0.843 | 0.855 | 0.705 | 0.45 |
| NCI-H2085 | 1.01 | 1.03 | 1.02 | 0.981 | 0.893 | 0.928 | 0.983 | 0.977 | 1.01 | 0.998 | 0.986 |  | 1.04 | 0.99 | 0.99 | 1.01 | 0.931 | 0.914 |
| NCI-H1666 | 1.04 | 0.92 | 0.992 | 1.05 | 0.858 | 1.09 | 0.988 | 1.04 | 1.01 | 0.99 | 0.922 | 0.933 | 0.991 | 0.932 | 0.891 | 1.01 | 0.918 | 0.812 |
| NCI-H1993 | 1.04 | 0.916 | 0.833 | 0.95 | 0.664 | 0.901 | 0.882 | 0.929 | 1.04 | 0.842 | 0.813 | 0.885 | 1 | 0.922 | 0.944 | 0.871 | 0.754 | 0.703 |
| NCI-H1437 | 0.994 | 0.985 | 1.01 | 1.06 | 0.981 | 0.901 | 0.947 | 0.988 | 1.1 | 0.966 |  | 0.957 | 0.937 | 0.968 | 0.955 | 1.03 | 0.981 | 0.758 |
| ABC-1 | 0.95 | 0.978 | 0.938 | 0.812 | 0.453 | 0.974 | 0.826 | 1.08 | 1.07 | 0.835 | 0.969 | 0.624 | 0.827 | 0.917 | 0.844 | 0.908 | 0.628 | 0.537 |
| NCI-H727 | 0.954 | 0.869 | 1.04 | 0.827 | 0.629 | 0.904 | 0.903 | 0.832 | 1.13 | 0.78 | 0.806 | 0.91 | 0.894 | 0.809 | 0.906 | 0.796 | 0.681 | 0.515 |
| PC-3 [JPC-3] | 1.05 | 0.972 | 0.522 | 0.542 | 0.431 | 0.85 | 0.966 | 1.01 | 1.15 | 1.07 | 1.08 | 0.945 | 1 | 0.922 | 0.983 | 0.653 | 0.507 | 0.984 |
| NCI-H1792 | 0.928 | 0.896 | 0.853 | 1.04 | 0.809 |  | 0.747 | 0.924 | 1.2 | 0.693 | 0.844 | 0.708 | 0.878 | 0.829 | 0.974 | 0.858 | 0.874 | 0.594 |
| NCI-H1355 | 1.03 | 0.957 | 0.967 | 0.976 | 0.883 | 0.934 | 0.931 | 0.986 | 1.1 | 0.912 | 0.961 | 0.921 | 0.997 | 0.892 | 1.01 | 1.02 | 0.957 | 0.75 |
| HCC-827 | 1.08 | 0.709 | 0.247 | 0.198 | 0.192 | 1.07 | 1.1 | 1.01 | 1.11 | 1.05 | 1.09 | 1.02 | 1.04 | 1.02 | 1.01 | 0.31 | 0.186 | 1.04 |
| NCI-H1944 | 0.981 | 0.884 | 0.899 | 0.817 | 0.574 | 0.914 | 0.956 | 0.958 | 1.03 | 0.951 | 1.08 | 0.939 | 0.909 | 0.92 | 0.902 | 0.813 | 0.965 | 0.94 |
| NCI-H2405 | 1.06 | 0.984 | 1.09 | 1.1 | 0.951 | 0.981 | 0.943 | 0.962 | 0.988 | 0.981 | 1.06 | 0.869 | 0.993 | 0.785 | 1.1 | 1.06 | 0.689 | 0.574 |
| NCI-H650 | 1.13 | 1.02 | 1.14 | 0.98 | 0.849 | 0.86 | 0.782 | 1.04 | 1.14 | 1.02 | 1.01 | 0.662 | 1.02 | 1 | 0.907 | 1.06 | 0.403 | 0.622 |
| HCC-366 | 1.03 | 0.997 | 1.01 | 1.03 | 0.931 | 0.883 | 1.06 | 0.995 | 1.05 | 1.05 | 1.01 | 0.979 | 0.966 | 1.01 | 1.03 | 1.01 | 1.02 | 1.07 |
| NCI-H838 | 0.988 | 0.922 | 0.992 | 1.02 | 0.871 | 0.902 | 0.954 | 0.968 | 1.1 | 0.953 |  | 0.792 | 0.938 | 0.902 | 0.973 | 0.94 | 0.957 | 0.545 |
